Data taken from US20100204277A1, “Compositions and Methods for Controlling Infestation” (HATCHTECH PTY LTD., priority 2007, published 2010).
Several values for one entry are separate records, joined by “and”; a condition that tells them apart may be missing. Identical values can stand only once. Like-named read-outs stand apart in the source and are kept apart here.

Tests used:
[1] = system: Lice (L) / Plutella (P) eggs; assay type: in vivo; conditions: Lice/Plutella: P
Procedure: Log LD50 is obtained from the observed percentage ovicidal activity by conversion using a modified logit transformation. The observed percentage ovicidal activity values were transformed using the equation:
The additional 5% was used to allow a number to be calculated when 0% and 100% activity was observed. The BA is a crude correction to the log of the concentration at which the compounds were tested. Correlation between BA values and LD50 allows the calculation of Log LD50. […] A number of metal chelating agents with potential for inhibiting the remodelling events associated with thin membrane egg hatching in lice were analysed by comparing their percentage ovicidal activity in lice at different concentrations, their logit calculated pLD50, Pref pLD50, Activity class, clogP and molar refractivity were determined.

[2] = system: H. contortus eggs; experiment: Haemonchus contortus egg hatch; assay type: in vivo
Procedure: In an attempt to improve control of H. contortus the effects of the compound 5,5′-dimethyl-2,2′-dipyridyl was examined on H. contortus eggs. Eggs were recovered from the faeces of infected sheep using a standard sucrose floatation method. The eggs were corrected to a density of approximately 2,500 eggs per mL and were then exposed to varying concentrations of compound and incubated for 48 hours at 25° C. The eggs were then examined to determine the ovicidal efficacy of the compound in comparison to untreated control and a solvent only control.
In addition, the ovicidal efficacy of the compound 2-acetyl-1-tetralone was examined against H. contortus (FIG. 10). The same protocol was used as described for 5,5′-dimethyl-2,2′-dipyridyl.

[3] = system: Helicoverpa armigera eggs; experiment: Helicoverpa egg hatch; conditions: for ovicidal efficacy against H. armigera eggs (FIG. 6): 1% diethoxyglycol in water; for % Inhibition of egg hatch relative to control: Example 16, exposed 2-10 seconds, day 6 post laying
Procedure: A range of concentrations were made up in water and the eggs placed in the solutions for approximately 2-10 seconds. The eggs which had been laid on cloth were then blotted dry and placed in an incubator at 26° C. for 3-4 days until hatch. Hatch rates were then assessed compared to a water only treated control (FIG. 5).
The compound was dissolved in 100% diethoxyglycol and diluted to a final concentration of 1% in water.
Several hundred Helicoverpa armigera eggs (Tatura×Toowoomba strains) were collected, that had been laid on fine mesh cloth over a 24 hour period.
Batches of Helicoverpa eggs were exposed to a specific inhibitor solution for between 2-10 seconds the excess solution drained by blotting with dry tissue paper. The egg masses were then placed in a humid box at 25 degrees until egg hatch. Control eggs were exposed to absolute methanol as described above. At day 6 post laying the eggs were assessed from the different treatments and the percentage of egg hatch determined relative to the control as shown in Table 12.
Batches of Helicoverpa eggs were then exposed to a specific inhibitor solution for between 2-10 seconds the excess solution drained by blotting with dry tissue paper. The egg masses were then placed in a humid box at 25° C. until egg hatch. Control eggs were exposed to absolute methanol as described above. At day 6 post laying the eggs were assessed from the different treatments and the percentage of egg hatch determined relative to the control as shown in Table 13.

[4] = system: Plutella xylostella eggs (Waite strain); experiment: Plutella xylostella egg hatch (egg dip); conditions: for ovicidal efficacy against Plutella eggs (FIG. 7): 1% diethoxyglycol; for egg hatching of Plutella eggs (Tables 10 and 11): cloth or parafilm; for % Inhibition of egg hatch relative to control: Example 12, dip 2-10 seconds, day 6 post laying
Procedure: Several hundred Plutella xylostella eggs (Waite strain) were collected, that had been laid over a 24 hour period.
The egg masses were then placed in a humid box at 25° C. until egg hatch. Control eggs were exposed to absolute methanol as described above. At day 6 post laying the eggs were assessed from the different treatments and the percentage of egg hatch determined relative to the control as shown in Table 9.
Batches of Plutella eggs that were laid on either fine cloth or parafilm were dipped in a specific inhibitor solution for between 2-10 seconds, the excess solution was drained by blotting with dry tissue paper. The egg masses were then placed in a humid box at 25 degrees until egg hatch. Control eggs were exposed to absolute methanol as described above or not treated. At day 6 post laying the eggs were assessed from the different treatments and the percentage of egg hatch determined relative to the controls as shown in Tables 10 and 11.
The egg masses were then placed in a humid box at 25 degrees until egg hatch. Control eggs were exposed to absolute ethanol as described above. On day 6 post laying the eggs were assessed from the different treatments and the percentage of egg hatch determined relative to the control.

[5] = system: Plutella xylostella eggs (Waite strain); experiment: Reversal of ovicidal effect by added metal ions (FeSO4), Plutella eggs; assay type: in vivo
Procedure: (§1) Within 24 hours of collection the following experimental design was chosen. Batches of eggs were exposed to 10 mM 6,6′-dimethyl-2,2′-dipyridyl for 2 seconds while additional batches of eggs were exposed to the solvent only (Methanol) for 2 seconds. All batches of eggs were allowed to air dry for 20 minutes at room temperature. The eggs were then given a 2 second exposure to FeSO4 at either 10, 5 or 1 mM, air dried and put in the incubator at 24° C. and allowed to hatch over the next 6 days. In addition, a positive control of 10 mM 6,6′-dimethyl-2,2′-dipyridyl was set up in which eggs were exposed to this compound for 2 seconds, air dried and placed in the incubator.
as §1, with “10 mM 5,5′-dimethyl-2,2′-dipyridyl for 2” for “10 mM 6,6′-dimethyl-2,2′-dipyridyl for 2”, “FeSO4 at 10, 5” for “FeSO4 at either 10, 5”, “put in an incubator at” for “put in the incubator at”, “of 10 mM, 5,5′-dimethyl-2,2′-dipyridyl was set” for “of 10 mM 6,6′-dimethyl-2,2′-dipyridyl was set”

[6] = system: house dust mite; experiment: House dust mite counts on treated filter paper; assay type: in vivo, Dermatophagoides spp; conditions: per replicate; for 2 week count (mite count): 2 weeks at 25° C. and 75% RH
Procedure: A filter paper (90 mm diameter) was taken and placed in a Petri dish of the same dimensions. The filter paper was then wetted throughout with the test compound, using a small air pump sprayer. The wetted filter paper was then allowed to dry in free flowing air. 200 mg dust mite medium, containing roughly 500 mites/g, was placed on the filter paper and the number of mites counted under a microscope. The arena was then left for 2 weeks on an incubator at 25° C. and 75% RH. After 2 weeks the number of mites in the arena was counted for a second time. This experiment was repeated 3 times with the test compound and a further 3 times using water as a control.

[7] = system: Third stage H. contortus larvae; experiment: Survival of third stage H. contortus larvae (L3 to L4); assay type: in vivo, Haemonchus contortus
Procedure: Third stage H. contortus larvae were exposed to varying concentrations of 5,5′-dimethyl-2,2′-dipyridyl and the effects on moulting from L3 to L4 examined. The larvae were either exsheathed (their L2 sheath was removed chemically) or unexsheathed (their L2 sheaths were intact). The larvae were exposed to varying concentrations of 5,5′-dimethyl-2,2′-dipyridyl added to their culture media of DMEM and the effects on larval survival monitored over time. Following a 30 minute incubation at 37° C., greater than 90% of the exsheathed larvae exposed to 1 and 0.5 mM of the compound appeared dead. […] By day six post exposure greater than 90% of the larvae appeared to have died in the treatment groups while the control larvae appeared healthy.

[8] = system: head lice eggs; experiment: Formulated compound on egg hatching in head lice; assay type: in vivo; conditions: 20 mM formulation
Procedure: Gravid female lice were permitted to lay eggs. The eggs were counted, inspected under a light microscope and all eggs that appeared undamaged were allocated to one of two treatment groups. One group was exposed to 5′-dimethyl-2,2′-dipyridyl in a formulation, while the second group was exposed to the formulation only. The protocol was as follows:
Treatments: 5′-dimethyl-2,2′-dipyridyl (20 mM) n=10 • Vehicle control only n=10
Exposure time: 10 minutes
Wash time: 1 minute @˜37° C.
Incubation: All eggs were placed at 31° C. in a humid incubator and monitored for signs of development specifically of the eyes and subsequent hatching, see Table 21.

[9] = 10 mM compound followed by 2 second exposure to 1 mM FeSO4
[10] = 10 mM compound followed by 2 second exposure to 5 mM FeSO4
[11] = 10 mM compound followed by 2 second exposure to 10 mM FeSO4

Structure (SMILES): CC(=O)C1CCc2ccccc2C1=O (stereo not drawn) [2-acetyl-1-tetralone]
- Activity class 0 = inactive 1 = low 2 = med 3 = high ([1]; 1 mM): 3 (a pLD50 greater than 4 is considered strongly active (Class 3))
- Activity class 0 = inactive 1 = low 2 = med 3 = high ([1]; 10 mM): 1 (a pLD50 value between 2 and 3 is considered weakly active (Class 1))
- inhibition of H. contortus egg hatch (FIG. 10) ([2]; 22 ug/mL (0.1 mM)): Partial inhibition
- inhibition of H. contortus egg hatch (FIG. 10) ([2]; 220 ug/mL (1 mM) and 110 ug/mL (0.5 mM)): highly effective
- ovicidal efficacy against H. armigera eggs (FIG. 6) ([3]; 1 mM): efficacy declining
- ovicidal efficacy against H. armigera eggs (FIG. 6) ([3]; 2 mM): strong ovicidal efficacy
- ovicidal efficacy against Plutella eggs (FIG. 7) ([4]; 0.5 mM): no inhibition
- ovicidal efficacy against Plutella eggs (FIG. 7) ([4]; 2 and 1 mM): strong ovicidal efficacy

Structure (SMILES): Cc1ccc(-c2ccc(C)cn2)nc1 [5,5′-dimethyl-2,2′-dipyridyl]
- % Inhibition relative to the FeSO4 controls [5, 9]: 0%
- % Inhibition relative to the FeSO4 controls [5, 10]: 0%
- % Inhibition relative to the FeSO4 controls [5, 11]: 8%
- ovicidal efficacy on H. contortus eggs (FIG. 8) ([2]; 180 and 18 ug/mL (equivalent to 1 and 0.1 mM), 48 hours at 25° C.): potently ovicidal
- 2 week count (mite count) ([6]; listed as Test Compound): 50 and 90
- 2 week count (mite count) ([6]; listed as Test compound): 74
- 1 hour count (mite count) ([6]; listed as Test Compound): 61 and 104
- 1 hour count (mite count) ([6]; listed as Test compound): 76
- appearance of unexsheathed larvae ([7]; 10 μM, up to 6 days post exposure): appeared normal
- effects on unexsheathed larvae compared to control larvae ([7]; up to 3 days post exposure): no adverse effects
- egg hatching in head lice ([8]; 10 minutes exposure): significantly suppress
- eggs that failed to hatch ([8]; the eggs other than the two that developed): 80%
- egg hatching of Plutella eggs (Tables 10 and 11) ([4]; 10 and 1 mM): significantly inhibit

Structure (SMILES): Cc1cccc(-c2cccc(C)n2)n1 [6,6′-dimethyl-2,2′-dipyridyl]
- % Inhibition relative to the FeSO4 controls [5, 9]: 3%
- % Inhibition relative to the FeSO4 controls [5, 10]: 0%
- % Inhibition relative to the FeSO4 controls [5, 11]: 38%
- % Inhibition of egg hatch relative to control ([3]; 0.001 mM): No inhibition
- % Inhibition of egg hatch relative to control ([3]; 0.01 mM): No inhibition
- % Inhibition of egg hatch relative to control ([3]; 0.1 mM): No inhibition
- % Inhibition of egg hatch relative to control ([3]; 1 mM): significantly inhibit
- % Inhibition of egg hatch relative to control ([3]; 10 mM): significantly inhibit
- % Inhibition of egg hatch relative to control ([4]; 1 mM): strong ovicidal effects
- % Inhibition of egg hatch relative to control ([4]; 10 mM): strong ovicidal effects
- egg hatching of Plutella eggs (Tables 10 and 11) ([4]; 0.1 and 0.01 mM): no observable effects
- egg hatching of Plutella eggs (Tables 10 and 11) ([4]; 10 and 1 mM): effective at inhibiting egg hatching
